Key:
Assay in all cases: KINOMEscan
Assay type in all cases: binding
Conditions in all cases: 2000 nM
[1] = molecular target: T1, ABL1(E255K)-phosphorylated (Homo sapiens, UniProt P00519, E255K)
T1 construct: DNA label (qPCR read-out); purchased DiscoverX (KINOMEscan service)

[2] = molecular target: ABL1(F317I)-phosphorylated (Homo sapiens, UniProt P00519, F317I)
[3] = molecular target: ABL1(T315I)-phosphorylated (Homo sapiens, UniProt P00519, T315I)
ADCK3 = molecular target: T2, ADCK3 (Homo sapiens, UniProt Q8NI60)
T2 construct: purchased DiscoveRx (KINOMEscan scanMAX panel, service)

AKT1 = molecular target: T3, AKT1 (Homo sapiens, UniProt P31749)
T3 construct: purchased DiscoveRx (KINOMEscan scanMAX panel, service)

BRAF = molecular target: T4, BRAF (Homo sapiens, UniProt P15056)
T4 construct: DNA label (for qPCR read-out); purchased KINOMEscan scanMAX panel (DiscoveRx)

BTK = molecular target: T5, BTK (Homo sapiens, UniProt Q06187)
T5 construct: DNA label (for qPCR read-out); purchased KINOMEscan scanMAX panel (DiscoveRx)

CAMK1G = molecular target: T6, CAMK1G (Homo sapiens, UniProt Q96NX5)
T6 construct: DNA label (qPCR read-out); purchased KINOMEscan (ScanMAX panel service)

CDK5 = molecular target: T7, CDK5 (Homo sapiens, UniProt Q00535)
T7 construct: purchased DiscoverX (KINOMEscan service)

CHEK1 = molecular target: T8, CHEK1 (Homo sapiens, UniProt O14757)
T8 construct: DNA label (for qPCR read-out); purchased DiscoveRx (KINOMEscan scanMAX service)

CLK3 = molecular target: T9, CLK3 (Homo sapiens, UniProt P49761)
T9 construct: DNA label (for qPCR read-out); purchased DiscoveRx (KINOMEscan scanMAX service)

CSNK1G3 = molecular target: T10, CSNK1G3 (Homo sapiens, UniProt Q9Y6M4)
T10 construct: DNA label; purchased DiscoveRx (KINOMEscan scanMAX panel)

FLT3(N841I) = molecular target: T11, FLT3(N841I) (Homo sapiens, UniProt P36888, N841I)
T11 construct: purchased KINOMEscan (DiscoveRx)

GRK4 = molecular target: T12, GRK4 (Homo sapiens, UniProt P32298)
T12 construct: DNA label (for qPCR read-out); purchased DiscoveRx (KINOMEscan scanMAX panel, contract assay)

IKK-epsilon = molecular target: T13, IKK-epsilon (Homo sapiens, UniProt Q14164)
T13 construct: DNA label (qPCR read-out); purchased KINOMEscan (DiscoveRx) ScanMAX panel

[4] = molecular target: T14, JAK1(JH2domain-pseudokinase) (Homo sapiens, UniProt P23458)
T14 construct: JAK1(JH2domain-pseudokinase); DNA label (for qPCR read-out); purchased DiscoveRx (KINOMEscan scanMAX panel)

LIMK2 = molecular target: T15, LIMK2 (Homo sapiens, UniProt P53671)
T15 construct: purchased KINOMEscan (DiscoveRx) panel service

LKB1 = molecular target: T16, LKB1 (Homo sapiens, UniProt Q15831)
T16 construct: purchased KINOMEscan (DiscoveRx) panel service

MAP3K15 = molecular target: T17, MAP3K15 (Homo sapiens, UniProt Q6ZN16)
T17 construct: DNA label (qPCR read-out); purchased DiscoverX (KINOMEscan service)

MARK1 = MARK1 (Homo sapiens, UniProt Q9P0L2)
MEK3 = molecular target: T18, MEK3 (Homo sapiens, UniProt P46734)
T18 construct: purchased DiscoveRx (KINOMEscan scanMAX panel, service)

MLK2 = molecular target: T19, MLK2 (Homo sapiens, UniProt Q02779)
T19 construct: DNA label (qPCR read-out); purchased KINOMEscan scanMAX panel (DiscoveRx)

MRCKA = molecular target: T20, MRCKA (Homo sapiens, UniProt Q5VT25)
T20 construct: DNA label (qPCR read-out); purchased KINOMEscan scanMAX panel (DiscoveRx)

MYLK2 = molecular target: T21, MYLK2 (Homo sapiens, UniProt Q9H1R3)
T21 construct: DNA label (for qPCR read-out); purchased KINOMEscan scanMAX panel (DiscoveRx)

MYO3A = molecular target: T22, MYO3A (Homo sapiens, UniProt Q8NEV4)
T22 construct: DNA label (for qPCR read-out); purchased KINOMEscan scanMAX panel (DiscoveRx)

PHKG1 = molecular target: T23, PHKG1 (Homo sapiens, UniProt Q16816)
T23 construct: DNA label (for qPCR read-out); purchased DiscoveRx (KINOMEscan scanMAX service)

PIK3CA(E542K) = molecular target: T24, PIK3CA(E542K) (Homo sapiens, UniProt P42336, E542K)
T24 construct: DNA label; purchased DiscoveRx (KINOMEscan scanMAX panel)

PRKCH = molecular target: T25, PRKCH (Homo sapiens, UniProt P24723)
T25 construct: purchased DiscoveRx (KINOMEscan scanMAX panel)

PRKD3 = molecular target: T26, PRKD3 (Homo sapiens, UniProt O94806)
T26 construct: purchased DiscoveRx (KINOMEscan scanMAX panel)

PRKG2 = molecular target: T27, PRKG2 (Homo sapiens, UniProt Q13237)
T27 construct: purchased DiscoveRx (KINOMEscan scanMAX panel)

PRKR = molecular target: T28, PRKR (Homo sapiens, UniProt P19525)
T28 construct: purchased DiscoveRx (KINOMEscan scanMAX panel)

RET(V804L) = molecular target: T29, RET(V804L) (Homo sapiens, UniProt P07949, V804L)
T29 construct: purchased DiscoveRx (KINOMEscan scanMAX panel)

SGK3 = molecular target: T30, SGK3 (Homo sapiens, UniProt Q96BR1)
T30 construct: purchased KINOMEscan (DiscoveRx)

TGFBR2 = molecular target: T31, TGFBR2 (Homo sapiens, UniProt P37173)
T31 construct: DNA label (qPCR read-out); purchased KINOMEscan (DiscoveRx) ScanMAX panel

WNK1 = molecular target: T32, WNK1 (Homo sapiens, UniProt Q9H4A3)
T32 construct: purchased KINOMEscan (DiscoveRx) panel service

WNK3 = molecular target: T33, WNK3 (Homo sapiens, UniProt Q9BYP7)
T33 construct: purchased KINOMEscan (DiscoveRx) panel service
T33 sequence (Q9BYP7 whole entry): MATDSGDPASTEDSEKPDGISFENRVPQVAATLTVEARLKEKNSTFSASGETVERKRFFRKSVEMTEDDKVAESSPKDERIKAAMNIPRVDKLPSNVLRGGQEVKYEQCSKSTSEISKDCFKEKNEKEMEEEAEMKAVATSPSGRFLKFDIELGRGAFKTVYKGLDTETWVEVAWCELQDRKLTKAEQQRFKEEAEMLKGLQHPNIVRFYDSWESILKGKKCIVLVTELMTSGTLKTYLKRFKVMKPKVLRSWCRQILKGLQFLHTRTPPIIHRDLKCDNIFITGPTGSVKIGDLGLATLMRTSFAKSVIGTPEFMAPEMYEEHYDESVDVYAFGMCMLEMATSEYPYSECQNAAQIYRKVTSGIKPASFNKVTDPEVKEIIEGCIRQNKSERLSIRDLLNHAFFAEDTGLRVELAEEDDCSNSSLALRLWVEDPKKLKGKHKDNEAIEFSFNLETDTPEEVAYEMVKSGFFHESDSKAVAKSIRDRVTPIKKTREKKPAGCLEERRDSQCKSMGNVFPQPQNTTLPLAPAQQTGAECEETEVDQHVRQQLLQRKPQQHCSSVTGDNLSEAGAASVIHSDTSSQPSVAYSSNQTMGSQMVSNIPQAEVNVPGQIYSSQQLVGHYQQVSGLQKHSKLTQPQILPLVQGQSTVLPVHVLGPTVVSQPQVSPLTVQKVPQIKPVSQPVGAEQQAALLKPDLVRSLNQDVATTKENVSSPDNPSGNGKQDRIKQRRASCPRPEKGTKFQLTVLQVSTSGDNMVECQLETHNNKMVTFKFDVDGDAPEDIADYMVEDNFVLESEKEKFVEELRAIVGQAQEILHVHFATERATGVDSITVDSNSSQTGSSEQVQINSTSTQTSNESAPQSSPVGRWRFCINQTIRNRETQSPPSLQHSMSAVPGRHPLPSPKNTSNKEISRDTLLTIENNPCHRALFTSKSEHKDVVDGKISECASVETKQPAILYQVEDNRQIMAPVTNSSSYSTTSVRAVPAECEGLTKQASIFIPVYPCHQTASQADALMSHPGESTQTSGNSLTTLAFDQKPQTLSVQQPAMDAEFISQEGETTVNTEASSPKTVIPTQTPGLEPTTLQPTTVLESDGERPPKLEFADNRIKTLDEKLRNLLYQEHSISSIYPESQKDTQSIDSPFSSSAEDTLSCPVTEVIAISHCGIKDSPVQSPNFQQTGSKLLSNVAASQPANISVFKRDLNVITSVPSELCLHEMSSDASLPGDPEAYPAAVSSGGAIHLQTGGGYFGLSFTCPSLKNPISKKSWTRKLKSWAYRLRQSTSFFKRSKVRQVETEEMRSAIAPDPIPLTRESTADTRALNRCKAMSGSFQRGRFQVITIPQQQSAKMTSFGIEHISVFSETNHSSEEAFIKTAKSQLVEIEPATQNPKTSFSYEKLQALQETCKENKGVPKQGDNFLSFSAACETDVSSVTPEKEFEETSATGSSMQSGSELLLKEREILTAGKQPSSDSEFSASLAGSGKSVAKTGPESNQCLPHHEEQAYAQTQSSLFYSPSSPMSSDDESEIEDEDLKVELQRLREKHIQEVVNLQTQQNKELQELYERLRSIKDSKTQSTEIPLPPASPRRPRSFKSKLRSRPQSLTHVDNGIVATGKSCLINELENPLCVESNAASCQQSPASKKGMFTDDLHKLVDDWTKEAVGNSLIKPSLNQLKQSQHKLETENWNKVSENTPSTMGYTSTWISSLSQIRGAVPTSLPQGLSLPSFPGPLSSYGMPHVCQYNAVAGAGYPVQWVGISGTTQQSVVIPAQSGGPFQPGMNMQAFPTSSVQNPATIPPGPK

T12 sequence (P32298 whole entry): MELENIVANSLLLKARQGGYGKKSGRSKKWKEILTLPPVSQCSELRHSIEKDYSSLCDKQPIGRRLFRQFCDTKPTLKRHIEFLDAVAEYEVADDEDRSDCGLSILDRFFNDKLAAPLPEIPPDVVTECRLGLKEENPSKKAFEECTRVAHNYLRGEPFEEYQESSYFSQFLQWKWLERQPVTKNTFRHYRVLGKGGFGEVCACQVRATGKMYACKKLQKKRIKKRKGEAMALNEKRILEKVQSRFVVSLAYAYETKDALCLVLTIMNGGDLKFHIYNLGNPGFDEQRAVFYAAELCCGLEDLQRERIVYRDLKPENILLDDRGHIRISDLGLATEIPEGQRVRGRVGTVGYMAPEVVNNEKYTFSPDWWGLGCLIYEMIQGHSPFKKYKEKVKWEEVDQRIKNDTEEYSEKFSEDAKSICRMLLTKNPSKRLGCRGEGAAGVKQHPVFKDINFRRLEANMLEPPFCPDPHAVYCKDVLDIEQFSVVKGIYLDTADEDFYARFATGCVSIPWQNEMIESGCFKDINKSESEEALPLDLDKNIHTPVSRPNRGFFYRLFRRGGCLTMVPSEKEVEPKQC
T5 sequence (Q06187 whole entry): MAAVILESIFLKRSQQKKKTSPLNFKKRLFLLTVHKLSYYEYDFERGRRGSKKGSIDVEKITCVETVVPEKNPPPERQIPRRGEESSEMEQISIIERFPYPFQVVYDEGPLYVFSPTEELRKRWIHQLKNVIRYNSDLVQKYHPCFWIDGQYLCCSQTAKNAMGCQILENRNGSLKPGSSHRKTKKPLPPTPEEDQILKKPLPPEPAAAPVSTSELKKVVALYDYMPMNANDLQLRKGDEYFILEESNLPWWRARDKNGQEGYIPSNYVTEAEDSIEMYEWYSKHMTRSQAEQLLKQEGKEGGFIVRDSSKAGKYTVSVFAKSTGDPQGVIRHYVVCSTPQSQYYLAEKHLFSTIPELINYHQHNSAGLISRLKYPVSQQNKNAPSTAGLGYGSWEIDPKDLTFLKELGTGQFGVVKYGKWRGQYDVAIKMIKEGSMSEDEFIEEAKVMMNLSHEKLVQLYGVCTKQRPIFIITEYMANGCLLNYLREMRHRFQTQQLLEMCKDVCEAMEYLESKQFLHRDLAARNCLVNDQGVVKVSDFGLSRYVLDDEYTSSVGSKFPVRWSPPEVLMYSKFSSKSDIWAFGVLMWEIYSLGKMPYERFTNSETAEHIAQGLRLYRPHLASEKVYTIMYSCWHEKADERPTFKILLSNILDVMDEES
Sequence of MARK1 (Q9P0L2 whole entry): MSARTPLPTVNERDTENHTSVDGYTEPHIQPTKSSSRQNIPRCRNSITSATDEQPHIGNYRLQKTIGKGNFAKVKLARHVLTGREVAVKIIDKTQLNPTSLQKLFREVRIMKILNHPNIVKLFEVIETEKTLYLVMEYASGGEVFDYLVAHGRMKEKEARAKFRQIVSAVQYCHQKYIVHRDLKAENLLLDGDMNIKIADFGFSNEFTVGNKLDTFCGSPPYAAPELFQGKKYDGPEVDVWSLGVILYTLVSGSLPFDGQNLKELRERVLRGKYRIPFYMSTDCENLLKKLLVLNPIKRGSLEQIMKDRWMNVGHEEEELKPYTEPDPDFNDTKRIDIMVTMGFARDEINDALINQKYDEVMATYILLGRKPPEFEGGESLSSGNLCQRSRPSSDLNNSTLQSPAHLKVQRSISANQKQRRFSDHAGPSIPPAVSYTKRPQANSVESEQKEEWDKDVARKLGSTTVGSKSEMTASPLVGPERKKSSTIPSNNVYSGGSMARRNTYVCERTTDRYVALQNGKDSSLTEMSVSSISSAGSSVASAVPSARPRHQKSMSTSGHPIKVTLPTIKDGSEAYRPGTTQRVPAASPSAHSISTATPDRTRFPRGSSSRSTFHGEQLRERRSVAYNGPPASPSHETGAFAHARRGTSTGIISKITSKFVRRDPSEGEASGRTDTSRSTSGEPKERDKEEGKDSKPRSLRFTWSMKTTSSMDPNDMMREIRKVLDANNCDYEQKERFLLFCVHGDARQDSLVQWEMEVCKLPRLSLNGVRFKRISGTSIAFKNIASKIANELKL
T13 sequence (Q14164 whole entry): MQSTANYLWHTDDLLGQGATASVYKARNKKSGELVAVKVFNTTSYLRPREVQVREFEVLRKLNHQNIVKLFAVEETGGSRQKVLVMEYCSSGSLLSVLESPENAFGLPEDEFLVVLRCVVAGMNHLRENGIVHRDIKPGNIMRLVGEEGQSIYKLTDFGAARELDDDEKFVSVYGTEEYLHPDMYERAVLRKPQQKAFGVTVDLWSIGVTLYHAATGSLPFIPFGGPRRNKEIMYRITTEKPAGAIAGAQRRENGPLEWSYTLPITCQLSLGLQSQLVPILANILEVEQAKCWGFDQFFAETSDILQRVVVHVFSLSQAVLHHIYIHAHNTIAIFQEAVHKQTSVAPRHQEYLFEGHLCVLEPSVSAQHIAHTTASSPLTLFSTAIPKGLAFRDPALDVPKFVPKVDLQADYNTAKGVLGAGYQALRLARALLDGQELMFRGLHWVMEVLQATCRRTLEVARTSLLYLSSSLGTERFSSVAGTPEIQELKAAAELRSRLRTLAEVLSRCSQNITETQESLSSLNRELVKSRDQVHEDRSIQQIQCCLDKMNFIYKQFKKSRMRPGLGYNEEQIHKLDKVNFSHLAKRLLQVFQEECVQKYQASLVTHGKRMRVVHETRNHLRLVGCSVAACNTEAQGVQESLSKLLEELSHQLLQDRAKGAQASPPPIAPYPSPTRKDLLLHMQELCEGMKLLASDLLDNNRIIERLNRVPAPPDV
T14 sequence (P23458 583-855 limits assumed): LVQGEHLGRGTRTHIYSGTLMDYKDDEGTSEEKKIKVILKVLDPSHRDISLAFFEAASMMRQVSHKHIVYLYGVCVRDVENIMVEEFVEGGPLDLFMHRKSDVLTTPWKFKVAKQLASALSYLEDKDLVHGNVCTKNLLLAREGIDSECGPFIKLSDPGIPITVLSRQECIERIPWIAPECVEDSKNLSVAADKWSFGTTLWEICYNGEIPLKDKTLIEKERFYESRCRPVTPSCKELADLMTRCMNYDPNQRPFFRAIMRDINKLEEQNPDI

Row | SMILES | % Ctrl [1] | % Ctrl [2] | % Ctrl [3] | % Ctrl (ADCK3) | % Ctrl (AKT1) | % Ctrl (BRAF) | % Ctrl (BTK) | % Ctrl (CAMK1G) | % Ctrl (CDK5) | % Ctrl (CHEK1) | % Ctrl (CLK3) | % Ctrl (CSNK1G3) | % Ctrl (FLT3(N841I)) | % Ctrl (GRK4) | % Ctrl (IKK-epsilon) | % Ctrl [4] | % Ctrl (LIMK2) | % Ctrl (LKB1) | % Ctrl (MAP3K15) | % Ctrl (MARK1) | other results
1 | CN(C)C(=O)c1ccc(N2CCCN(c3ccnc4sc(C(N)=O)c(N)c34)CC2)cc1 [15u, 3-amino-4-(4-(4-(dimethylcarbamoyl)phenyl)-1,4-diazepan-1-yl)thieno[2,3-b]pyridine-2-carboxamide] | 100 % Ctrl | 88 % Ctrl | 90 % Ctrl | 90 % Ctrl | 100 % Ctrl | 100 % Ctrl | 81 % Ctrl | 99 % Ctrl | 84 % Ctrl | 94 % Ctrl | 100 % Ctrl | 95 % Ctrl | 90 % Ctrl | 62 % Ctrl | 100 % Ctrl | 89 % Ctrl | 91 % Ctrl | 100 % Ctrl | 97 % Ctrl | 100 % Ctrl | % Ctrl (MEK3): 68 % Ctrl; % Ctrl (MLK2): 100 % Ctrl; % Ctrl (MRCKA): 94 % Ctrl; % Ctrl (MYLK2): 100 % Ctrl; % Ctrl (MYO3A): 100 % Ctrl; % Ctrl (PHKG1): 94 % Ctrl; % Ctrl (PIK3CA(E542K)): 92 % Ctrl; % Ctrl (PRKCH): 80 % Ctrl; % Ctrl (PRKD3): 94 % Ctrl; % Ctrl (PRKG2): 98 % Ctrl; % Ctrl (PRKR): 100 % Ctrl; % Ctrl (RET(V804L)): 100 % Ctrl; % Ctrl (SGK3): 79 % Ctrl; % Ctrl (TGFBR2): 100 % Ctrl; % Ctrl (WNK1): 100 % Ctrl; % Ctrl (WNK3): 97 % Ctrl
2 | [2H]C([2H])([2H])N(C(=O)c1ccc(N2CCCN(c3ccnc4sc(C(N)=O)c(N)c34)CC2)cc1)C([2H])([2H])[2H] [15u_D6, 3-amino-4-(4-(4-(bis(methyl-d3)carbamoyl)phenyl)-1,4-diazepan-1-yl)thieno[2,3-b]pyridine-2-carboxamide] | 82 % Ctrl | 84 % Ctrl | 78 % Ctrl | 100 % Ctrl | 100 % Ctrl | 96 % Ctrl | 77 % Ctrl | 99 % Ctrl | 94 % Ctrl | 100 % Ctrl | 95 % Ctrl | 80 % Ctrl | 86 % Ctrl | 98 % Ctrl | 100 % Ctrl | 89 % Ctrl | 98 % Ctrl | 87 % Ctrl | 92 % Ctrl | 100 % Ctrl | % Ctrl (MEK3): 47 % Ctrl; % Ctrl (MLK2): 95 % Ctrl; % Ctrl (MRCKA): 100 % Ctrl; % Ctrl (MYLK2): 100 % Ctrl; % Ctrl (MYO3A): 100 % Ctrl; % Ctrl (PHKG1): 97 % Ctrl; % Ctrl (PIK3CA(E542K)): 74 % Ctrl; % Ctrl (PRKCH): 96 % Ctrl; % Ctrl (PRKD3): 100 % Ctrl; % Ctrl (PRKG2): 90 % Ctrl; % Ctrl (PRKR): 100 % Ctrl; % Ctrl (RET(V804L)): 100 % Ctrl; % Ctrl (SGK3): 80 % Ctrl; % Ctrl (TGFBR2): 100 % Ctrl; % Ctrl (WNK1): 93 % Ctrl; % Ctrl (WNK3): 100 % Ctrl
